Two compounds from US6630161B1, “Adjuvant composition and methods for its use” (Ribi Immunochem Research, Inc., priority 1998, dated 2003) can be followed below.

A short description of the data set: Histamine type response after intravenous administration of surfactants. The format is in vivo. Conditions: dogs.

Turning to `CCCCCCCC/C=C\CCCCCCCC(=O)OCCOCC(OCCO)C1OCC(OCCO)C1OCCO` (centres unmarked) [Tween 80], the “response when administered intravenously” value is recorded as “histamine type response”.

On to polysorbate 80, for which the “response when administered intravenously” value is listed as “histamine type response”.
